Key:
Type in all cases: functional
[1] = tested on: NCI-H2122; test: Anti-tumor activity against human NCI-H2122 cells xenografted with nude mouse assessed as inhibition of tumor growth inhibition at 50 mg/kg, po QD for 21 days relative to control; settings: NCI-H2122, 504 h, time 21 day, read-out: TGI
[2] = tested on: NCI-H2122; test: Anti-tumor activity against human NCI-H2122 cells xenografted with nude mouse assessed as inhibition of tumor growth inhibition at 50 mg/kg, po QD for 21 days co-treated with 50 mg/kg, po QD Erlotinib relative to control; settings: NCI-H2122, 504 h, time 21 day, read-out: TGI
[3] = Anti-tumor activity against human PDX CR6256 cells xenografted with nude BALB/c mouse assessed as inhibition of tumor growth inhibition at 30 mg/kg, po QD for 21 days co-treated with 20 mg/kg, ip QD Cetuximab relative to control; settings: PDX CR6256, 504 h, time 21 day, read-out: TGI

| Structure (SMILES) | inhibition in vivo at 50 mg/kg [1] | inhibition in vivo at 50 mg/kg [2] | inhibition in vivo at 30 mg/kg [3] |
| --- | --- | --- | --- |
| C=CC(=O)N1CCN(c2nc(OC[C@@H]3CCCN3C)nc3c(F)c(-c4nc(N)cc(C)c4C(F)(F)F)c(Cl)cc23)[C@@H](C)C1 [DIVARASIB] | 93% | 117% | 133% |
| C#Cc1cccc(Nc2ncnc3cc(OCCOC)c(OCCOC)cc23)c1 [ERLOTINIB] | 48% | – | – |

Reference: ChEMBL document CHEMBL5120978, “Application of Compositions Comprising a KRAS G12C Inhibitor and an EGFR Inhibitor for the Potential Treatment of Cancer” (2022)
